Results taken from PubChem BioAssay (NCI).
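Step 1: Grow cells in 96-well plates. Step 2: Expose to compound for 48 hours at 5 concentrations. Step 3: Interpolate endpoints linearly; if unreached, use highest concentration. Here, GI50 denotes the concentration required for 50% inhibition of growth. Definition used: TGI = concentration required for complete inhibition of growth.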

How the values were obtained:
Assay in all cases: NCI tumour cell line growth inhibition, 48 h
SR leukemia = system: SR leukemia
ACHN renal = system: ACHN renal
IGROV1 ovarian = system: IGROV1 ovarian
MALME-3M melanoma = system: MALME-3M melanoma
OVCAR-5 ovarian = system: OVCAR-5 ovarian
MDA-MB-435 = system: MDA-MB-435
NCI-H226 lung = system: NCI-H226 lung
NCI/ADR-RES ovarian = system: NCI/ADR-RES ovarian
SW-620 colon = system: SW-620 colon
SK-OV-3 ovarian = system: SK-OV-3 ovarian
786-0 renal = system: 786-0 renal
EKVX NSCLC = system: EKVX NSCLC
OVCAR-4 ovarian = system: OVCAR-4 ovarian
HOP-62 NSCLC = system: HOP-62 NSCLC
SNB-19 CNS = system: SNB-19 CNS
SK-MEL-28 melanoma = system: SK-MEL-28 melanoma
RXF 393 renal = system: RXF 393 renal
M14 melanoma = system: M14 melanoma
MCF7 breast = system: MCF7 breast
NCI-H522 lung = system: NCI-H522 lung
MOLT-4 leukemia = system: MOLT-4 leukemia
TK-10 renal = system: TK-10 renal
SNB-75 CNS = system: SNB-75 CNS
HOP-92 NSCLC = system: HOP-92 NSCLC
HL-60(TB) leukemia = system: HL-60(TB) leukemia
UO-31 renal = system: UO-31 renal
HCT-116 colon = system: HCT-116 colon
T-47D breast = system: T-47D breast
BT-549 breast = system: BT-549 breast
LOX IMVI melanoma = system: LOX IMVI melanoma
DU-145 prostate = system: DU-145 prostate
RPMI-8226 leukemia = system: RPMI-8226 leukemia
K-562 leukemia = system: K-562 leukemia
KM12 colon = system: KM12 colon
NCI-H23 lung = system: NCI-H23 lung
HCC-2998 colon = system: HCC-2998 colon
CCRF-CEM leukemia = system: CCRF-CEM leukemia
SK-MEL-5 melanoma = system: SK-MEL-5 melanoma
SN12C renal = system: SN12C renal
COLO 205 colon = system: COLO 205 colon
OVCAR-8 ovarian = system: OVCAR-8 ovarian
SK-MEL-2 melanoma = system: SK-MEL-2 melanoma
PC-3 prostate = system: PC-3 prostate
UACC-62 melanoma = system: UACC-62 melanoma
SF-268 CNS = system: SF-268 CNS
SF-539 CNS = system: SF-539 CNS
SF-295 CNS = system: SF-295 CNS
HS 578T breast = system: HS 578T breast
NCI-H460 lung = system: NCI-H460 lung
HCT-15 colon = system: HCT-15 colon
A549 NSCLC = system: A549 NSCLC
CAKI-1 renal = system: CAKI-1 renal
HT29 colon = system: HT29 colon
U251 CNS = system: U251 CNS
MDA-MB-231 breast = system: MDA-MB-231 breast
UACC-257 melanoma = system: UACC-257 melanoma

With `C=C(C=O)[C@@H]1CC[C@]2(C)[C@H](CC=C3[C@H]4[C@@H](C)[C@H](C)CC[C@]4(C(=O)OC)CC[C@]32C)[C@@]1(C)CCC#N` the GI50 (SR leukemia) was 1860 nM, the TGI (SR leukemia) was over 100000 nM and the GI50 (ACHN renal) was 1640 nM. For the same molecule, the TGI (ACHN renal) was 3020 nM, the GI50 (IGROV1 ovarian) was 1820 nM and the TGI (IGROV1 ovarian) was 3750 nM. For the same molecule, the GI50 (MALME-3M melanoma) was 1960 nM, the TGI (MALME-3M melanoma) was 3690 nM and the GI50 (OVCAR-5 ovarian) was 2160 nM. The TGI (OVCAR-5 ovarian) was 4890 nM, the GI50 (MDA-MB-435) was 1810 nM and the TGI (MDA-MB-435) was 3530 nM. It also gave a GI50 (NCI-H226 lung) of 1810 nM, a TGI (NCI-H226 lung) of 3940 nM and a GI50 (NCI/ADR-RES ovarian) of 1950 nM. The TGI (NCI/ADR-RES ovarian) was 4580 nM, the GI50 (SW-620 colon) was 1760 nM and the TGI (SW-620 colon) was 3360 nM. It also gave a GI50 (SK-OV-3 ovarian) of 2390 nM, a TGI (SK-OV-3 ovarian) of 5260 nM and a GI50 (786-0 renal) of 1730 nM. For the same molecule, the TGI (786-0 renal) was 3290 nM, the GI50 (EKVX NSCLC) was 1890 nM and the TGI (EKVX NSCLC) was 3710 nM. It also gave a GI50 (OVCAR-4 ovarian) of 3070 nM, a TGI (OVCAR-4 ovarian) of 10700 nM and a GI50 (HOP-62 NSCLC) of 1960 nM. The TGI (HOP-62 NSCLC) was 3900 nM, the GI50 (SNB-19 CNS) was 1940 nM and the TGI (SNB-19 CNS) was 4160 nM. The GI50 (SK-MEL-28 melanoma) was 1810 nM, the TGI (SK-MEL-28 melanoma) was 3330 nM and the GI50 (RXF 393 renal) was 1990 nM. For the same molecule, the TGI (RXF 393 renal) was 3550 nM, the GI50 (M14 melanoma) was 1790 nM and the TGI (M14 melanoma) was 3840 nM. The GI50 (MCF7 breast) was 1610 nM, the TGI (MCF7 breast) was 4090 nM and the GI50 (NCI-H522 lung) was 1760 nM. The TGI (NCI-H522 lung) was 3310 nM, the GI50 (MOLT-4 leukemia) was 2660 nM and the TGI (MOLT-4 leukemia) was 12600 nM. It also gave a GI50 (TK-10 renal) of 1610 nM, a TGI (TK-10 renal) of 3320 nM and a GI50 (SNB-75 CNS) of 1550 nM. The TGI (SNB-75 CNS) was 3010 nM, the GI50 (HOP-92 NSCLC) was 1300 nM and the TGI (HOP-92 NSCLC) was 2640 nM. It also gave a GI50 (HL-60(TB) leukemia) of 2260 nM, a TGI (HL-60(TB) leukemia) of 5950 nM and a GI50 (UO-31 renal) of 1480 nM. The TGI (UO-31 renal) was 2810 nM, the GI50 (HCT-116 colon) was 1490 nM and the TGI (HCT-116 colon) was 3050 nM. For the same molecule, the GI50 (T-47D breast) was 1340 nM, the TGI (T-47D breast) was 5540 nM and the GI50 (BT-549 breast) was 1620 nM. The TGI (BT-549 breast) was 3240 nM, the GI50 (LOX IMVI melanoma) was 1610 nM and the TGI (LOX IMVI melanoma) was 3080 nM. For the same molecule, the GI50 (DU-145 prostate) was 1940 nM, the TGI (DU-145 prostate) was 3750 nM and the GI50 (RPMI-8226 leukemia) was 1610 nM. For the same molecule, the TGI (RPMI-8226 leukemia) was 5710 nM, the GI50 (K-562 leukemia) was 2830 nM and the TGI (K-562 leukemia) was over 100000 nM. It also gave a GI50 (KM12 colon) of 1600 nM, a TGI (KM12 colon) of 3060 nM and a GI50 (NCI-H23 lung) of 1810 nM. The TGI (NCI-H23 lung) was 3590 nM, the GI50 (HCC-2998 colon) was 1630 nM and the TGI (HCC-2998 colon) was 3110 nM. For the same molecule, the GI50 (CCRF-CEM leukemia) was 1420 nM, the TGI (CCRF-CEM leukemia) was 9470 nM and the GI50 (SK-MEL-5 melanoma) was 1740 nM. It also gave a TGI (SK-MEL-5 melanoma) of 3140 nM, a GI50 (SN12C renal) of 1820 nM and a TGI (SN12C renal) of 3830 nM. The GI50 (COLO 205 colon) was 1800 nM, the TGI (COLO 205 colon) was 3550 nM and the GI50 (OVCAR-8 ovarian) was 1900 nM. It also gave a TGI (OVCAR-8 ovarian) of 3890 nM, a GI50 (SK-MEL-2 melanoma) of 1710 nM and a TGI (SK-MEL-2 melanoma) of 3210 nM. It also gave a GI50 (PC-3 prostate) of 1200 nM, a TGI (PC-3 prostate) of 3100 nM and a GI50 (UACC-62 melanoma) of 1590 nM. It also gave a TGI (UACC-62 melanoma) of 3590 nM, a GI50 (SF-268 CNS) of 1990 nM and a TGI (SF-268 CNS) of 3570 nM. For the same molecule, the GI50 (SF-539 CNS) was 1930 nM, the TGI (SF-539 CNS) was 3490 nM and the GI50 (SF-295 CNS) was 1340 nM. For the same molecule, the TGI (SF-295 CNS) was 2670 nM, the GI50 (HS 578T breast) was 2530 nM and the TGI (HS 578T breast) was 5980 nM. The GI50 (NCI-H460 lung) was 1880 nM, the TGI (NCI-H460 lung) was 3540 nM and the GI50 (HCT-15 colon) was 1470 nM. For the same molecule, the TGI (HCT-15 colon) was 3070 nM, the GI50 (A549 NSCLC) was 3490 nM and the TGI (A549 NSCLC) was 14800 nM. For the same molecule, the GI50 (CAKI-1 renal) was 1560 nM, the TGI (CAKI-1 renal) was 3160 nM and the GI50 (HT29 colon) was 1590 nM. The TGI (HT29 colon) was 3470 nM, the GI50 (U251 CNS) was 1680 nM and the TGI (U251 CNS) was 3120 nM. For the same molecule, the GI50 (MDA-MB-231 breast) was 1790 nM, the TGI (MDA-MB-231 breast) was 3760 nM and the GI50 (UACC-257 melanoma) was 1820 nM. It also gave a TGI (UACC-257 melanoma) of 3530 nM.
